Assay results: patent US6495603B1, “Anti-inflammatory eye drop” (Wakamoto Pharmaceutical Co., Ltd., priority 1998, dated 2002)

Assays:
[1] = system: Chang human conjunctival cell strains (ATCC CCL-20.2); test: Cell toxicity, viable cell number by β-hexosaminidase activity, conjunctival cells; type: cell-based; conditions: concentration for survival rate of 50%
Protocol: (§1) There were used SV40 immortalized human corneal epithelial cell strains (Araki-Sasaki et al., IOVS, 1995, 36:614-621) as the corneal cells and Chang human conjunctival cell strains (ATCC CCL-20.2) as the conjunctival cells.
(§2) These cells were cultured in 96-well plate to a confluent of 30 to 50% and then each test substance stepwise diluted with the culture medium was added to the foregoing culture medium to thus carry out cultivation at 37° C. After completion of the cultivation, the plate was washed with PBS(−) and the number of residual cells was determined in terms of the β-hexosaminidase activity.
(§3) A group treated with only the solvent, which was used for dissolving the test substance was defined to be a negative control, the viable cell number observed for the control was assumed to be 100%, a dose-correlation curve was prepared on the basis of the viable cell number observed at each concentration of test substance and the concentration of each test substance required for achieving the survival rate of 50% (EC50) was determined from the curve and it was defined to be the toxicity value thereof.

[2] = system: SV40 immortalized human corneal epithelial cell strains; test: Cell toxicity, viable cell number by β-hexosaminidase activity, corneal epithelial cells; type: cell-based; conditions: concentration for survival rate of 50%
Protocol: as §1, §2, §3

Japanese white rabbits = test: Inflammation in anterior of white rabbit after anterior chamber puncture (secondary aqueous humor PGE2 and protein); type: in vivo; conditions: for Inhibition Rate (PGE2 Content) / Inhibition Rate (Protein Content): anterior chamber puncture, vs control; for PGE2 Content / Protein Content: secondary aqueous humor after anterior chamber puncture
Protocol: In this Test Example, there were used Japanese white rabbits (available from Japan Medical Animal Source Laboratory) each having a body weight ranging from 1.8 to 2.4 kg and they were divided into groups each consisting of 6 to 7 animals.
After administration of 250 U/kg of heparin (available from Takeda Chemical Industries, Ltd.) to these rabbits through the ear veins thereof, a test substance was dropped in the both eyes in an amount of about 60 μl. After 45 minutes from the dropping of the substance in the eyes, these animals were locally anesthetized with benoxil eye drop (available from Santen Pharmaceutical Co., Ltd.) and then whole of the anterior chamber fluid was collected using a 27G injection needle. This anterior chamber fluid was defined to be a primary aqueous humor. After 90 minutes from the collection of the aqueous humor, the rabbits were killed by anesthetization with an excess of pentobarbital sodium and the aqueous humor was again collected. This anterior chamber fluid was defined to be a secondary aqueous humor.
The concentration of prostaglandin E2 (hereunder referred to as “PGE2”) and the amount of proteins present in the collected secondary aqueous humor were determined and they were used as indications of inflammation. After pre-treatment of 100 μl of the aqueous humor using a Bond Elute C18 column, the concentration of PGE2 was determined using Biotrack PGE2 EIA system (available from Amersham Company). On the other hand, the amount of proteins was determined according to the Lowry method using bovine serum albumin (available from Nakarai Co., Ltd.) as a reference protein.
Etodolac as a test substance was dissolved in castor oil specified in the pharmacopoeia to concentrations of 0.5% and 5%. Meloxicam was diluted with physiological saline prior to use.

[3] = system: Japanese white male rabbits; test: Uveitis induced by LPS in rabbits (aqueous humor PGE2 and protein); type: in vivo, rabbit; conditions: for Inhibition Rate (PGE2 Content) / Inhibition Rate (Protein Content): LPS uveitis, vs control
Protocol: In this Test Example, groups of Japanese white male rabbits each having a body weight ranging from 1.7 to 2.4 kg were used, wherein each group consisted of 12 to 16 eyes.
The lipopolysaccharide (LPS) (055: B5 type, available from Sigma Company) derived from E. coli was administered to these rabbits through the auricular veins in a dose of 1.25 μg/kg to thus induce uveitis. After 4 hours from the administration of LPS, the rabbits were killed by anesthetization with an excess of pentobarbital sodium (available from Tokyo Chemical Industry Co., Ltd.) and the anterior chamber fluid was collected.
The PGE2 concentration and the amount of proteins present in the collected aqueous humor were determined according to the same methods used in Example 1.
In this respect, each test substance was dropped in the both eyes of these animals prior to one hour from the administration of LPS at a dose of about 60 μL/eye. […]

[4] = 24 h, exposure 24 hours, Table 4
[5] = 24 h, exposure time 24 hr, Table 5
[6] = 48 h, exposure time 48 hr, Table 5
[7] = aqueous humor 4 hours after LPS, 0.1% eye drop one hour before LPS
[8] = aqueous humor 4 hours after LPS, 0.5% eye drop one hour before LPS
[9] = aqueous humor 4 hours after LPS, 1.0% eye drop one hour before LPS

O=C(O)Cc1ccccc1Nc1c(Cl)cccc1Cl [Diclofenac Sodium]
EC50 [1, 4]: 130 µM
EC50 [1, 5]: 230 µM
EC50 [1, 6]: 220 µM
EC50 [2, 4]: 300 µM
EC50 [2, 5]: 630 µM
EC50 [2, 6]: 230 µM

CCc1cccc2c3c([nH]c12)C(CC)(CC(=O)O)OCC3 (stereo not shown) [Etodolac, 1,8-diethyl-1,3,4,9-tetrahydropyrano [3,4-b] indole-1-acetic acid]
Effect on the PGE2 content increased by the anterior chamber puncture (Japanese white rabbits; aqueous humor, 0.5% and 5% in castor oil, FIG. 1): inhibited the increase
Effect on the protein content increased by the anterior chamber puncture (Japanese white rabbits; aqueous humor, 0.5% and 5% in castor oil, FIG. 2): inhibited the increase
EC50 [1, 4]: 800 µM
EC50 [2, 4]: 1000 µM

COc1ccc2c(c1)c(CC(=O)O)c(C)n2C(=O)c1ccc(Cl)cc1 [Indometacin]
EC50 [1, 4]: 370 µM
EC50 [2, 4]: 570 µM

Cc1cnc(NC(=O)C2=C(O)c3ccccc3S(=O)(=O)N2C)s1 [Meloxicam, 4-hydroxy-2-methyl-N-(5-methyl-2-thiazolyl)-2H-1,2-benzo-thiazine-3-carboxamide 1,1-dioxide]
Inhibition Rate (PGE2 Content) (Japanese white rabbits; 0.1% eye drop): 75.0%
Inhibition Rate (Protein Content) (Japanese white rabbits; 0.1% eye drop): 29.3%
Inhibition Rate (PGE2 Content) (Japanese white rabbits; 0.5% eye drop): 90.7%
Inhibition Rate (Protein Content) (Japanese white rabbits; 0.5% eye drop): 52.2%
Inhibition Rate (PGE2 Content) (Japanese white rabbits; 1.0% eye drop): 94.2%
Inhibition Rate (Protein Content) (Japanese white rabbits; 1.0% eye drop): 47.6%
PGE2 Content (Japanese white rabbits; 0.1% eye drop): 680.6 pg/mL
Protein Content (Japanese white rabbits; 0.1% eye drop, about 60 μl both eyes): 16.2 ± 1.9 mg/mL
PGE2 Content (Japanese white rabbits; 0.5% eye drop): 253.5 pg/mL
Protein Content (Japanese white rabbits; 0.5% eye drop): 11.0 ± 1.5 mg/mL
PGE2 Content (Japanese white rabbits; 1.0% eye drop): 158.3 pg/mL
Protein Content (Japanese white rabbits; 1.0% eye drop): 12.0 ± 2.1 mg/mL
EC50 [1, 5]: 970 µM
EC50 [1, 6]: 380 µM
Inhibition Rate (PGE2 Content) ([3]; 0.1% eye drop): 55.9%
Inhibition Rate (Protein Content) ([3]; 0.1% eye drop): 33.8%
Inhibition Rate (PGE2 Content) ([3]; 0.5% eye drop): 68.8%
Inhibition Rate (PGE2 Content) ([3]; 1.0% eye drop): 63.1%
Inhibition Rate (Protein Content) ([3]; 1.0% eye drop): 49.4%
PGE2 Content [3, 7]: 1102.8 pg/mL
Protein Content [3, 7]: 16.0 ± 1.9 mg/mL
PGE2 Content [3, 8]: 780.9 pg/mL
Protein Content [3, 8]: 14.3 ± 2.6 mg/mL
PGE2 Content [3, 9]: 922.8 pg/mL
Protein Content [3, 9]: 12.2 ± 1.8 mg/mL
EC50 [2, 5]: > 1000 µM
EC50 [2, 6]: 840 µM

CS(=O)(=O)Nc1ccc([N+](=O)[O-])cc1OC1CCCCC1 [NS-398, N-(2-(cyclohexyloxy)-4-nitrophenyl) methanesulfonamide]
Inhibition Rate (PGE2 Content) ([3]; 0.5% in castor oil): 65.9%
Inhibition Rate (PGE2 Content) ([3]; 5.0% in castor oil): 59.4%
PGE2 Content ([3]; aqueous humor 4 hours after LPS 1.25 μg/kg, 0.5% in castor oil, dropped one hour before LPS): 4553 ± 118.6 pg/mL
PGE2 Content ([3]; aqueous humor 4 hours after LPS 1.25 μg/kg, 5.0% in castor oil, dropped one hour before LPS): 542.8 ± 79.8 pg/mL
